Results as given in the supplement of paper PMC10307832.

Key:
Experiment in all cases: relative viability (nuclei count vs DMSO), 5 days (fraction); higher = more cells survive
EMC-BAC-2 = test system: EMC-BAC-2
Method in brief: (§1)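 Lung cancer cell lines were seeded in 1536-well plates and dosed by pin tool the next day, with either a single drug or a fixed anchor-drug dose combined with five library-drug doses (not always all listed) spaced in √10 steps. Five days later, one step fixed the cells and stained their nuclei (final 0.05% Triton X-100, 1% formaldehyde, 1 ug/ml Hoechst), and nuclei were counted on 4× images. Relative viability is the nuclei count in treated wells divided by the count in vehicle wells, and each value is the median of duplicate plates.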

EPLC-272H = test system: EPLC-272H
Method in brief: as §1

H3255 = test system: H3255
Method in brief: as §1

HOP-62 = test system: HOP-62
Method in brief: as §1

LCLC-97TM1 = test system: LCLC-97TM1
Method in brief: as §1

LXF-289 = test system: LXF-289
Method in brief: as §1

NCI-H1563 = test system: NCI-H1563
Method in brief: as §1

NCI-H1734 = test system: NCI-H1734
Method in brief: as §1

NCI-H1915 = test system: NCI-H1915
Method in brief: as §1

NCI-H1993 = test system: NCI-H1993
Method in brief: as §1

NCI-H2009 = test system: NCI-H2009
Method in brief: as §1

NCI-H2023 = test system: NCI-H2023
Method in brief: as §1

NCI-H2085 = test system: NCI-H2085
Method in brief: as §1

NCI-H2126 = test system: NCI-H2126
Method in brief: as §1

NCI-H2347 = test system: NCI-H2347
Method in brief: as §1

NCI-H322M = test system: NCI-H322M
Method in brief: as §1

NCI-H647 = test system: NCI-H647
Method in brief: as §1

NCI-H661 = test system: NCI-H661
Method in brief: as §1

NCI-H727 = test system: NCI-H727
Method in brief: as §1

PC-14 = test system: PC-14
Method in brief: as §1

SK-LU-1 = test system: SK-LU-1
Method in brief: as §1

SW 1573 = test system: SW 1573
Method in brief: as §1

O=c1cc(-c2cccc3c2Sc2ccccc2S3)oc(N2CCOCC2)c1 + N=C(N)NC(=N)NCCc1ccccc1 [Phenformin] (partner 250 µM)
relative viability (EMC-BAC-2; first compound 0.08 µM): 0.502 | relative viability (EMC-BAC-2; first compound 0.253 µM): 0.54 | relative viability (EMC-BAC-2; first compound 0.8 µM): 0.563 | relative viability (EMC-BAC-2; first compound 2.53 µM): 0.489 | relative viability (EMC-BAC-2; first compound 8 µM): 0.519 | relative viability (EPLC-272H; first compound 0.08 µM): 0.247 | relative viability (EPLC-272H; first compound 0.253 µM): 0.333 | relative viability (EPLC-272H; first compound 0.8 µM): 0.318 | relative viability (EPLC-272H; first compound 2.53 µM): 0.254 | relative viability (EPLC-272H; first compound 8 µM): 0.255 | relative viability (H3255; first compound 0.08 µM): 0.323 | relative viability (H3255; first compound 0.253 µM): 0.393 | relative viability (H3255; first compound 0.8 µM): 0.339 | relative viability (H3255; first compound 2.53 µM): 0.338 | relative viability (H3255; first compound 8 µM): 0.39 | relative viability (HOP-62; first compound 0.08 µM): 0.714 | relative viability (HOP-62; first compound 0.253 µM): 0.899 | relative viability (HOP-62; first compound 0.8 µM): 0.688 | relative viability (HOP-62; first compound 2.53 µM): 0.663 | relative viability (HOP-62; first compound 8 µM): 0.799 | relative viability (LCLC-97TM1; first compound 0.08 µM): 0.403 | relative viability (LCLC-97TM1; first compound 0.253 µM): 0.361 | relative viability (LCLC-97TM1; first compound 0.8 µM): 0.475 | relative viability (LCLC-97TM1; first compound 2.53 µM): 0.418 | relative viability (LCLC-97TM1; first compound 8 µM): 0.496 | relative viability (LXF-289; first compound 0.08 µM): 0.531 | relative viability (LXF-289; first compound 0.253 µM): 0.526 | relative viability (LXF-289; first compound 0.8 µM): 0.556 | relative viability (LXF-289; first compound 2.53 µM): 0.431 | relative viability (LXF-289; first compound 8 µM): 0.558 | relative viability (NCI-H1563; first compound 0.08 µM): 0.626 | relative viability (NCI-H1563; first compound 0.253 µM): 0.689 | relative viability (NCI-H1563; first compound 0.8 µM): 0.617 | relative viability (NCI-H1563; first compound 2.53 µM): 0.633 | relative viability (NCI-H1563; first compound 8 µM): 0.611 | relative viability (NCI-H1734; first compound 0.08 µM): 0.36 | relative viability (NCI-H1734; first compound 0.253 µM): 0.45 | relative viability (NCI-H1734; first compound 0.8 µM): 0.417 | relative viability (NCI-H1734; first compound 8 µM): 0.436 | relative viability (NCI-H1915; first compound 0.08 µM): 0.37 | relative viability (NCI-H1915; first compound 0.253 µM): 0.4 | relative viability (NCI-H1915; first compound 0.8 µM): 0.436 | relative viability (NCI-H1915; first compound 2.53 µM): 0.355 | relative viability (NCI-H1915; first compound 8 µM): 0.406 | relative viability (NCI-H1993; first compound 0.08 µM): 0.494 | relative viability (NCI-H1993; first compound 0.253 µM): 0.52 | relative viability (NCI-H1993; first compound 0.8 µM): 0.589 | relative viability (NCI-H1993; first compound 2.53 µM): 0.565 | relative viability (NCI-H1993; first compound 8 µM): 0.56 | relative viability (NCI-H2009; first compound 0.08 µM): 0.481 | relative viability (NCI-H2009; first compound 0.253 µM): 0.545 | relative viability (NCI-H2009; first compound 0.8 µM): 0.522 | relative viability (NCI-H2009; first compound 2.53 µM): 0.445 | relative viability (NCI-H2009; first compound 8 µM): 0.446 | relative viability (NCI-H2023; first compound 0.08 µM): 0.401 | relative viability (NCI-H2023; first compound 0.253 µM): 0.484 | relative viability (NCI-H2023; first compound 0.8 µM): 0.476 | relative viability (NCI-H2023; first compound 2.53 µM): 0.362 | relative viability (NCI-H2023; first compound 8 µM): 0.44 | relative viability (NCI-H2085; first compound 0.08 µM): 0.654 | relative viability (NCI-H2085; first compound 0.253 µM): 0.702 | relative viability (NCI-H2085; first compound 0.8 µM): 0.739 | relative viability (NCI-H2085; first compound 2.53 µM): 0.678 | relative viability (NCI-H2085; first compound 8 µM): 0.576 | relative viability (NCI-H2126; first compound 0.08 µM): 0.53 | relative viability (NCI-H2126; first compound 0.253 µM): 0.584 | relative viability (NCI-H2126; first compound 0.8 µM): 0.482 | relative viability (NCI-H2126; first compound 2.53 µM): 0.517 | relative viability (NCI-H2126; first compound 8 µM): 0.521 | relative viability (NCI-H2347; first compound 0.08 µM): 0.541 | relative viability (NCI-H2347; first compound 0.253 µM): 0.501 | relative viability (NCI-H2347; first compound 0.8 µM): 0.416 | relative viability (NCI-H2347; first compound 2.53 µM): 0.279 | relative viability (NCI-H2347; first compound 8 µM): 0.362 | relative viability (NCI-H322M; first compound 0.08 µM): 0.738 | relative viability (NCI-H322M; first compound 0.253 µM): 0.764 | relative viability (NCI-H322M; first compound 0.8 µM): 0.742 | relative viability (NCI-H322M; first compound 2.53 µM): 0.632 | relative viability (NCI-H322M; first compound 8 µM): 0.688 | relative viability (NCI-H647; first compound 0.08 µM): 0.572 | relative viability (NCI-H647; first compound 0.253 µM): 0.838 | relative viability (NCI-H647; first compound 0.8 µM): 0.547 | relative viability (NCI-H647; first compound 2.53 µM): 0.476 | relative viability (NCI-H647; first compound 8 µM): 0.487 | relative viability (NCI-H661; first compound 0.08 µM): 0.269 | relative viability (NCI-H661; first compound 0.253 µM): 0.26 | relative viability (NCI-H661; first compound 0.8 µM): 0.271 | relative viability (NCI-H661; first compound 2.53 µM): 0.267 | relative viability (NCI-H661; first compound 8 µM): 0.259 | relative viability (NCI-H727; first compound 0.08 µM): 0.503 | relative viability (NCI-H727; first compound 0.253 µM): 0.591 | relative viability (NCI-H727; first compound 0.8 µM): 0.411 | relative viability (NCI-H727; first compound 2.53 µM): 0.571 | relative viability (NCI-H727; first compound 8 µM): 0.525 | relative viability (PC-14; first compound 0.08 µM): 0.553 | relative viability (PC-14; first compound 0.253 µM): 0.479 | relative viability (PC-14; first compound 0.8 µM): 0.54 | relative viability (PC-14; first compound 8 µM): 0.746 | relative viability (SK-LU-1; first compound 0.08 µM): 0.545 | relative viability (SK-LU-1; first compound 0.253 µM): 0.551 | relative viability (SK-LU-1; first compound 0.8 µM): 0.737 | relative viability (SK-LU-1; first compound 2.53 µM): 0.459 | relative viability (SK-LU-1; first compound 8 µM): 0.527 | relative viability (SW 1573; first compound 0.08 µM): 0.38 | relative viability (SW 1573; first compound 0.253 µM): 0.369 | relative viability (SW 1573; first compound 0.8 µM): 0.339 | relative viability (SW 1573; first compound 2.53 µM): 0.347 | relative viability (SW 1573; first compound 8 µM): 0.364
